According to patent US20250186405A1, “Compound For Use In Treating Narcolepsy” (Alkermes, Inc., priority 2023, published 2025):
Like-named read-outs stand apart in the source and are kept apart here.

Legend:
[1] = system: subjects with narcolepsy type-1 (NT1); assay: Part 4 NT1: Maintenance of Wakefulness Test (MWT) sleep latency; assay type: in vivo, human; settings: for change from baseline in average sleep latency on MWT vs placebo: 1, 3 and 8 mg
Description: On Day −1, approximately 25 hours prior to study drug administration (on Day 1), baseline assessments for Maintenance of Wakefulness Test (MWT) began and were collected in a series of trials over approximately 10 hours.
At specified time points (Part 4), MWT assessments were performed and took up to 40 minutes to complete. The MWT is the standard objective measure of an individual's ability to remain awake during the daytime in a darkened, quiet environment and is commonly used to assess response to treatment. The MWT assessments were performed according to American Academy of Sleep Medicine (AASM) guidance. During the MWT trials, subjects were seated in a bed or reclining chair in a darkened room with their back and head supported such that their neck is not uncomfortably flexed or extended. Subjects are instructed to sit still and remain awake for as long as possible during each 40-minute trial. If the subject fell asleep during a trial, they were awakened, and the trial was terminated. […] Upon completion of the trial, the subject returned to a normal environment/ambiance and remained awake (and were awakened if they fall asleep) until the next trial.
Once Part 4 was completed, the EEG data recorded during the MWT, as well as the technician notes, were transferred to the EEG vendor for further analysis. Technician notes were also maintained for transfer to Sponsor at the end of the study. A precise assessment of sleep latency was conducted by an experienced sleep scorer from the EEG vendor, and spectral analysis was performed on the EEG data recorded during MWT to assess absolute and relative powers in standard frequency bands (i.e., qEEG). All raw data and analysis results were transferred to the Sponsor.
For the changes from baseline in average sleep latency across the first 4 sessions of the MWT, descriptive statistics were provided by dose level. Mixed model with repeated measure (MMRM) for the 4-period crossover design were conducted with the change from baseline as a dependent variable, and the dose level and the period as fixed factors. The differences in the least square means between each Compound A dose level and the placebo (each Compound A dose level—the placebo), and the 2-sided CIs were provided.
Evaluation of Compound A effects on average sleep latency across 4 timepoints of MWT (2-, 4-, 6-, and 8-hours post-dose) from 4 patients with NT1 has been conducted at pre-dose baseline series on Day −1, and each of the crossovers (Days 1, 3, 5 and 7), testing placebo, and active dose levels of 1, 3, and 8 mg in the patients with NT1 compared to placebo.
Evaluation of Compound A effects on average sleep latency across 4 timepoints of MWT (2-, 4-, 6-, and 8-hours post-dose) from 10 patients with NT1 (including the 4 patients described above in 4.19.1) has been conducted at pre-dose baseline series on Day −1, and each of the crossovers (Days 1, 3, 5 and 7), testing placebo, and active dose levels of 1, 3, and 8 mg in the patients with NT1 compared to placebo.

[2] = Oral PK of micronized Compound A, powder-in-capsule vs tablet, two particle sizes; assay type: in vivo, male Beagle dogs; settings: male, Beagle, dog, plasma
Description: A non-GLP study was conducted in male Beagle dogs to compare the Compound A plasma exposure of powder-in-capsule (PIC) versus tablet formulation after the administration of single oral doses of micronized Compound A. Two different particle sizes were tested with the following objectives: • 1. To compare the oral plasma exposure of micronized Compound A (12 micron Dv90 particle size) after the administration of 20 mg of Compound A powder-in-capsule vs 20 mg of Compound A in four tablets of 5 mg each. • 2. To compare the oral plasma exposure of 12 micron and 32 micron Dv90 particle size of 20 mg micronized Compound A administered in four tablets of 5 mg each. • 3. To evaluate the dose-linearity of Compound A by comparing the oral plasma exposure of Compound A following the oral administration of 5 mg (one tablet) versus 20 mg (four tablets) of Compound A.
The pharmacokinetic analysis of concentrations and concentration-time data are summarized in tabular form, below, using descriptive statistics. Concentration data were summarized according to nominal sampling times. Plasma concentrations below the lower limit of assay quantification (BLOQ) were not included in the computation of mean concentration values. Pharmacokinetic parameters for individual animals were estimated using the non-compartmental analysis (NCA) using Dotmatics Studies tool.
The absolute extravascular bioavailability (F %) were calculated using the following formula: F %= [(AUC0-∞(extravascular)×Dose(intravenous(IV)))/(AUC0-∞(intravenous(IV))×Dose(extravascular))]×100 Where the “extravascular” represents any of subcutaneous (SC), intraperitoneal (IP) or oral (PO) route of administration.
The F % is calculated for each subject in case the same animals were administered with both intravenous and extravascular dose, then the average is reported with the standard error; otherwise, F % is calculated using the mean values without reporting a standard deviation in case the subjects of intravenous and extravascular profiles are different. Pharmacokinetic parameters were summarized by dosing group, route of administration, formulation, etc. using descriptive statistics.

[3] = system: subjects with narcolepsy type-2 (NT2); settings: human, in vivo
Description: Part 5 consisted of a 4-way, 4-period crossover study design in approximately 8 subjects (2 subjects per sequence; minimum of 4 subjects with 1 subject per sequence). Subjects were randomized 1:1:1:1 to 1 of 4 sequences with 4 treatment periods (3 single doses of Compound A and 1 dose of matching placebo), with up to 48 hours of washout between treatments. Treatments were administered under fasted state.
Subjects were randomized to 1 of 4 sequences. […] In each period, subjects were administered a single dose of study drug (either Compound A or placebo) as per the randomization schedule with approximately 240 mL of noncarbonated water following overnight fasting. No food was given for at least 3 hours after dose administration (i.e., fast can be broken after the 3-hour PK time point is collected). Water was allowed ad libitum except for 1 hour before and 1 hour after study drug administration. Safety assessments including AEs, safety ECGs, vital signs, and clinical laboratory tests were conducted, and plasma PK samples were collected. Furthermore, BP and HR were monitored once every hour for 12 hours on the dosing days.
Adverse events (AEs) and serious adverse events (SAEs) were monitored continuously until the completion of the study.
Nine subjects with NT2 were dosed in Part 5 (POC in NT2) in a randomized 4-sequence 4-period cross-over design. Each dose of Compound A or matching placebo was separated by 2 days. A 14-day washout period preceded the treatment period and included discontinuation of narcolepsy medications. All 9 subjects underwent the washout period and received at least one dose of Compound A. All subjects completed all 4-way randomized crossover periods.

[4] = Part 6 IH: plasma pharmacokinetics, single doses; assay type: in vivo, human; settings: for Cmax / AUC(0-t) / Tmax: human, oral, plasma; for Cmax / AUC(0-t): geometric mean; for AUC(0-t): read-out: AUC0-24
Description: Treatments were administered under fasted state. Dose levels were as follows:
Subjects were randomized to 1 of 4 sequences.
Blood samples (up to 5 mL per sample) were collected for PK analysis of Compound A and its metabolite(s). The actual time of sample collection was recorded. The PK samples of the subjects randomized to placebo treatment were not analyzed. Any remaining plasma PK samples were used to explore the presence of any additional metabolites and/or biomarkers.
Plasma and urine concentrations of Compound A and its metabolite(s) were measured using a validated high-performance liquid chromatography with tandem mass spectrometry.
The PK population was used for summaries of plasma Compound A and its metabolite(s) concentrations and for analyses, summaries, and listing of PK parameters. Dose proportionality for Cmax, AUC0-t, and AUC0-∞ was evaluated using a linear model of logarithmically transformed values to assess the slope parameter, and the 95% CI for the slope was estimated. Where a 95% CI of the slope includes 1, it was considered as evidence of dose proportionality for that PK parameter.

[5] = 1 mg, NT1, N = 9 (10-patient analysis, Table 13a)
[6] = 3 mg, NT1, N = 9 (10-patient analysis, Table 13a)
[7] = 8 mg, NT1, N = 10 (10-patient analysis, Table 13a)

CS(=O)(=O)N[C@H]1CCCN2C(=O)COc3ccccc3C3CCC(CC3)OCC12 (stereo partly drawn) [Compound A, N-[(4S,4aR,7α,10α)-1,2,3,4,4a,5,7,8,9,10,16,17-dodecahydro-17-oxo-7,10-ethanopyrido[1,2-d][1,7,4]benzodioxaazacyclotridecin-4-yl]methanesulfonamide]
average sleep latency improvement on MWT ([1]; 1 mg, 4 patients with NT1): 19.5 min | Change from Day −1 in Average Sleep Latency on the MWT, LSM difference vs placebo ([1]; 1 mg, NT1, N = 4): 19.47 min | Change from Day −1 in Average Sleep Latency on the MWT, LSM ([1]; 1 mg, NT1, N = 4, average of 2, 4, 6, 8 h post-dose): 18.41 min | Change from Day −1 in Average Sleep Latency on the MWT, LSM [1, 5]: 16.95 min | Change from Day −1 in Average Sleep Latency on the MWT, LSM difference vs placebo [1, 5]: 18.38 min | MWT by-timepoint effect ([1]; 3 mg, 4 patients with NT1): maximum effect over 2, 4 and 6-hour timepoints, and meaningful effect at 8 hours | Change from Day −1 in Average Sleep Latency on the MWT, LSM difference vs placebo ([1]; 3 mg, NT1, N = 4): 31.16 min | Change from Day −1 in Average Sleep Latency on the MWT, LSM ([1]; 3 mg, NT1, N = 4, average of 2, 4, 6, 8 h post-dose): 30.09 min | Change from Day −1 in Average Sleep Latency on the MWT, LSM [1, 6]: 21.15 min | Change from Day −1 in Average Sleep Latency on the MWT, LSM difference vs placebo [1, 6]: 22.57 min | MWT effect at every timepoint (maximum score 40 minutes) ([1]; 8 mg, 4 patients with NT1, including 10 hours post-dose): 40 min | Change from Day −1 in Average Sleep Latency on the MWT, LSM difference vs placebo ([1]; 8 mg, NT1, N = 4): 38.13 min | Change from Day −1 in Average Sleep Latency on the MWT, LSM ([1]; 8 mg, NT1, N = 4, average of 2, 4, 6, 8 h post-dose): 37.06 min | Change from Day −1 in Average Sleep Latency on the MWT, LSM [1, 7]: 32.55 min | Change from Day −1 in Average Sleep Latency on the MWT, LSM difference vs placebo [1, 7]: 33.97 min | change from baseline in average sleep latency on MWT vs placebo ([1]; 4 patients with NT1, 2-8 hours post-dose): statistically significant improvement in sleep latency | change from baseline in average sleep latency on MWT vs placebo ([1]; 10 patients with NT1, 2-8 hours post-dose): statistically significant improvement in sleep latency | bioavailability ([2]; 5 mg, one 5 mg tablet, 12 micron Dv90, read-out: Oral bioavailability (F %)): 55% | bioavailability ([2]; 20 mg, 20 mg PIC and 4 tablets of 5 mg, 12 and 32 micron Dv90, read-out: F % (absolute oral bioavailability), range): 26 to 29% | bioavailability ([2]; 20 mg, four 5 mg tablets (20 mg), 12 micron Dv90, read-out: Oral bioavailability (F %)): 29% | Tmax ([2]; 20 mg PIC and 4 tablets of 5 mg, 12 and 32 micron Dv90): ~3 h | AUC(0-inf) ([2]; 20 mg PIC and 4 tablets of 5 mg, 12 and 32 micron Dv90, read-out: AUC0-∞, range): 1570 to 1730 ng·h/mL | Cmax ([2]; 20 mg PIC and 4 tablets of 5 mg, 12 and 32 micron Dv90, read-out: Cmax, range): 230 to 270 ng/mL | half-life ([2]; 20 mg PIC and 4 tablets of 5 mg, 12 and 32 micron Dv90, read-out: terminal t1/2 (converted)): ~3 h | TEAE by Preferred Term: Influenza [3]: 1 (11.1) n (%) | fold change in AUC and Cmax for 5-fold change in dose ([4]; IH patients, 5 to 25 mg): approximately 3 fold | Cmax ([4]; 5 mg, IH, n = 7): 11.8 ng/mL | AUC(0-t) ([4]; 5 mg, IH, n = 7): 78.9 ng·h/mL | Cmax ([4]; 12 mg, IH, n = 7): 18.1 ng/mL | AUC(0-t) ([4]; 12 mg, IH, n = 7): 156 ng·h/mL | Cmax ([4]; 25 mg, IH, N = 8): 32.2 ng/mL | AUC(0-t) ([4]; 25 mg, IH, N = 8): 230 ng·h/mL | Tmax ([4]; 5 mg, IH, median, n = 7, read-out: Tmax): 1.5 h | Tmax ([4]; 12 mg, IH, median, n = 7, read-out: Tmax): 3 h | Tmax ([4]; 25 mg, IH patients, 5, 12, 25 mg, read-out: median tmax, range across doses): 1.5 to 3 h | Tmax ([4]; 25 mg, IH, median, N = 8, read-out: Tmax): 1.5 h
